Where “and” joins values, the source holds several entries; their conditions need not be identical. Identical values can stand only once. Inconclusive results and toxic doses are left out. Rule for the calls: active = survival T/C of 150% or more; inactive = T/C below 125% in these data.
Tested on: CD2F1 mice, L1210 leukemia ip, survival T/C
Test: NCI In Vivo Anticancer Drug Screen. Data for tumor model L1210 Leukemia (intraperitoneal) in CD2F1 (CDF1) mice
Settings: higher = longer survival
Outline: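 Each value reflects a quotient of treated over vehicle control outcomes in mice with a transplanted tumor.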

[1] = endpoint: mean survival time, dose: 25.0 mg/kg/injection, schedule: Q04DX002 (ip), vehicle: saline with Tween-80
[2] = endpoint: mean survival time, dose: 50.0 mg/kg/injection, schedule: Q04DX002 (ip), vehicle: saline with Tween-80
[3] = endpoint: mean survival time, dose: 100.0 mg/kg/injection, schedule: Q04DX002 (ip), vehicle: saline with Tween-80
[4] = endpoint: mean survival time, dose: 200.0 mg/kg/injection, schedule: Q04DX002 (ip), vehicle: saline with Tween-80
[5] = endpoint: mean survival time, dose: 6.25 mg/kg/injection, schedule: Q04DX002 (ip), vehicle: saline with Tween-80
[6] = endpoint: mean survival time, dose: 12.5 mg/kg/injection, schedule: Q04DX002 (ip), vehicle: saline with Tween-80
[7] = endpoint: mean survival time, dose: 100.0 mg/kg/injection, schedule: Q01DX001 (ip), vehicle: saline
[8] = endpoint: mean survival time, dose: 200.0 mg/kg/injection, schedule: Q01DX001 (ip), vehicle: saline
[9] = endpoint: mean survival time, dose: 100.0 mg/kg/injection, schedule: Q01DX009 (ip), vehicle: saline with Tween-80
[10] = endpoint: mean survival time, dose: 200.0 mg/kg/injection, schedule: Q01DX009 (ip), vehicle: saline with Tween-80
[11] = endpoint: mean survival time, dose: 400.0 mg/kg/injection, schedule: Q01DX009 (ip), vehicle: saline with Tween-80
[12] = endpoint: mean survival time, dose: 50.0 mg/kg/injection, schedule: Q01DX009 (ip), vehicle: saline with Tween-80
[13] = endpoint: mean survival time, dose: 100.0 mg/kg/injection, schedule: Q01DX001 (ip), vehicle: saline with Tween-80
[14] = endpoint: mean survival time, dose: 200.0 mg/kg/injection, schedule: Q01DX001 (ip), vehicle: saline with Tween-80
[15] = endpoint: mean survival time, dose: 400.0 mg/kg/injection, schedule: Q01DX001 (ip), vehicle: saline with Tween-80

Measured: T/C

O=C(C#Cc1ccccc1)N1CCCCC1
inactive: [1] 99 % of control | [2] 99 % of control | [3] 101 % of control | [4] 92 % of control

O=[N+]([O-])c1ccc(-c2ccccc2)c([As](=O)(O)O)c1
inactive: [5] 124 % of control | [6] 116 % of control | [1] 104 % of control

CN(C)C(=O)N(c1ccccc1)c1ccccc1
inactive: [3] 98 % of control | [4] 90 % of control

CCOC(=O)CSc1ccc(F)cc1
inactive: [7] 90 % of control | [8] 100 % of control | endpoint: mean survival time, dose: 400.0 mg/kg/injection, schedule: Q01DX001 (ip), vehicle: saline 91 % of control

CCCCCCCCCCCCCC1CCCC(C)N1 (stereo not drawn)
inactive: [2] 89 % of control and 94 % of control | [3] 93 % of control and 94 % of control | [4] 101 % of control

C=CCOC(=O)C1c2ccccc2Cc2ccccc21
inactive: [9] 92 % of control | [10] 106 % of control | [11] 92 % of control

Cc1c(-c2ccc3c(c2)OCO3)no[n+]1[O-]
inactive: endpoint: mean survival time, dose: 100.0 mg/kg/injection, schedule: Q04DX003 (ip), vehicle: saline with Tween-80 91 % of control | endpoint: mean survival time, dose: 200.0 mg/kg/injection, schedule: Q04DX003 (ip), vehicle: saline with Tween-80 98 % of control | endpoint: mean survival time, dose: 400.0 mg/kg/injection, schedule: Q04DX003 (ip), vehicle: saline with Tween-80 88 % of control

Nc1nn[nH]n1
inactive: [9] 95 % of control | [10] 90 % of control | [11] 94 % of control

O=C(O)C[Se](=O)O
inactive: endpoint: mean survival time, dose: 12.5 mg/kg/injection, schedule: Q01DX001 (ip), vehicle: saline with Tween-80 91 % of control | endpoint: mean survival time, dose: 25.0 mg/kg/injection, schedule: Q01DX001 (ip), vehicle: saline with Tween-80 91 % of control

CCC(CC)COC(=O)c1ccccc1C(=O)OCC(CC)CC
inactive: endpoint: mean survival time, dose: 12.5 mg/kg/injection, schedule: Q01DX009 (ip), vehicle: saline with Tween-80 108 % of control | endpoint: mean survival time, dose: 25.0 mg/kg/injection, schedule: Q01DX009 (ip), vehicle: saline with Tween-80 101 % of control | [12] 104 % of control | [9] 102 % of control | [10] 98 % of control | [11] 100 % of control

CCCN(CCC)CCCC#N
inactive: [12] 100 % of control | [9] 101 % of control

Cc1cccc[n+]1CC[n+]1ccccc1C
inactive: [7] 100 % of control | [8] 101 % of control

O=S(=O)(c1ccccc1)c1ccc(Br)cc1
inactive: [9] 94 % of control | [10] 96 % of control | [11] 98 % of control

CC(=O)N(C)N=Nc1ccc(C(C)C)cc1
inactive: endpoint: mean survival time, dose: 9.37 mg/kg/injection, schedule: Q04DX003 (ip), vehicle: Klucel (hydroxypropylcellulose) (HPC) 97 % of control | endpoint: median survival time, dose: 2.3 mg/kg/injection, schedule: Q01DX009 (ip), vehicle: Klucel (hydroxypropylcellulose) (HPC) 116 % of control | endpoint: median survival time, dose: 4.6 mg/kg/injection, schedule: Q01DX009 (ip), vehicle: Klucel (hydroxypropylcellulose) (HPC) 110 % of control | endpoint: median survival time, dose: 9.37 mg/kg/injection, schedule: Q01DX009 (ip), vehicle: Klucel (hydroxypropylcellulose) (HPC) 116 % of control

O=C(O)C1C2OC(C(Br)C2Br)C1C(=O)O (stereo not drawn)
inactive: endpoint: mean survival time, dose: 50.0 mg/kg/injection, schedule: Q01DX009 (ip), vehicle: saline 102 % of control | endpoint: mean survival time, dose: 100.0 mg/kg/injection, schedule: Q01DX009 (ip), vehicle: saline 104 % of control

O=C/C(Cl)=C(/Cl)C(=O)O
inactive: endpoint: mean survival time, dose: 1.25 mg/kg/injection, schedule: Q01DX009 (ip), vehicle: saline with Tween-80 100 % of control | endpoint: mean survival time, dose: 2.5 mg/kg/injection, schedule: Q01DX009 (ip), vehicle: saline with Tween-80 98 % of control | endpoint: mean survival time, dose: 5.0 mg/kg/injection, schedule: Q01DX009 (ip), vehicle: saline with Tween-80 108 % of control | [5] 103 % of control | endpoint: mean survival time, dose: 10.0 mg/kg/injection, schedule: Q01DX009 (ip), vehicle: saline with Tween-80 104 % of control | [6] 107 % of control | endpoint: mean survival time, dose: 20.0 mg/kg/injection, schedule: Q01DX009 (ip), vehicle: saline with Tween-80 103 % of control | [1] 111 % of control

CC(=O)c1cccc(OC(=O)c2ccccc2)c1
inactive: [13] 104 % of control | [9] 97 % of control | [14] 94 % of control | [10] 94 % of control | [15] 104 % of control | [11] 91 % of control

CCOC(=O)c1c(O)c(=O)[nH]c2ccccc12
inactive: endpoint: mean survival time, dose: 100.0 mg/kg/injection, schedule: Q01DX005 (ip), vehicle: saline with Tween-80 106 % of control | endpoint: mean survival time, dose: 200.0 mg/kg/injection, schedule: Q01DX005 (ip), vehicle: saline with Tween-80 97 % of control | endpoint: mean survival time, dose: 400.0 mg/kg/injection, schedule: Q01DX005 (ip), vehicle: saline with Tween-80 97 % of control

ON1C=CC2C=CC1c1ccccc12 (stereo not drawn)
inactive: endpoint: median survival time, dose: 50.0 mg/kg/injection, schedule: Q04DX002 (ip), vehicle: saline with Tween-80 100 % of control | endpoint: median survival time, dose: 100.0 mg/kg/injection, schedule: Q04DX002 (ip), vehicle: saline with Tween-80 88 % of control | endpoint: median survival time, dose: 200.0 mg/kg/injection, schedule: Q04DX002 (ip), vehicle: saline with Tween-80 88 % of control

Cc1cc2[nH]c(=O)[nH]c2cc1C
inactive: [12] 103 % of control | [9] 94 % of control | [10] 102 % of control

C[Si](O)(O)CCCCNC(=O)/C=C\C(=O)O
inactive: endpoint: mean survival time, dose: 100.0 mg/kg/injection, schedule: Q04DX003 (ip), vehicle: other 89 % of control | endpoint: mean survival time, dose: 200.0 mg/kg/injection, schedule: Q04DX003 (ip), vehicle: other 93 % of control | endpoint: mean survival time, dose: 400.0 mg/kg/injection, schedule: Q04DX003 (ip), vehicle: other 89 % of control

CCC(C)[N+](=O)[O-] (stereo not drawn)
inactive: endpoint: mean survival time, dose: 50.0 mg/kg/injection, schedule: Q01DX001 (ip), vehicle: saline 94 % of control | [7] 98 % of control | [8] 102 % of control

O=C(O)c1ccccc1O.[Fe]
inactive: [8] 112 % of control

CCN(CC)N=Nc1ccccc1
inactive: endpoint: mean survival time, dose: 75.0 mg/kg/injection, schedule: Q01DX001 (ip), vehicle: saline 114 % of control

COC1CC2c3ccccc3C1C(C)=[N+]2C (stereo not drawn)
inactive: endpoint: mean survival time, dose: 100.0 mg/kg/injection, schedule: Q04DX003 (ip), vehicle: saline 101 % of control | endpoint: mean survival time, dose: 200.0 mg/kg/injection, schedule: Q04DX003 (ip), vehicle: saline 95 % of control | endpoint: mean survival time, dose: 400.0 mg/kg/injection, schedule: Q04DX003 (ip), vehicle: saline 94 % of control

Cc1cc(C)c(N(CC(=O)O)S(=O)(=O)c2ccccc2)c(C)c1N(CC(=O)O)S(=O)(=O)c1ccccc1
inactive: [13] 97 % of control | [14] 105 % of control | [15] 103 % of control

O=C(CCCl)Oc1c(Cl)c(Cl)c(Cl)c(Cl)c1Cl
inactive: [9] 92 % of control

Source: PubChem BioAssay AID256 (DTP/NCI, 2004)
